# Measured values: patent US20050214394A1, “Hippophae rhamnoides compositions for cancer therapy” (priority 2003, published 2005)
# Experiments:
# [1] = target: T1, COX-1 (Ovis aries, UniProt P05979); assay: COX-1 ELISA assay kit (PGHS-1 converting arachidonic acid to prostaglandins); conditions: commercial anti-inflammatory drug (positive control); concentration not given
# T1 sequence (P05979 25-600): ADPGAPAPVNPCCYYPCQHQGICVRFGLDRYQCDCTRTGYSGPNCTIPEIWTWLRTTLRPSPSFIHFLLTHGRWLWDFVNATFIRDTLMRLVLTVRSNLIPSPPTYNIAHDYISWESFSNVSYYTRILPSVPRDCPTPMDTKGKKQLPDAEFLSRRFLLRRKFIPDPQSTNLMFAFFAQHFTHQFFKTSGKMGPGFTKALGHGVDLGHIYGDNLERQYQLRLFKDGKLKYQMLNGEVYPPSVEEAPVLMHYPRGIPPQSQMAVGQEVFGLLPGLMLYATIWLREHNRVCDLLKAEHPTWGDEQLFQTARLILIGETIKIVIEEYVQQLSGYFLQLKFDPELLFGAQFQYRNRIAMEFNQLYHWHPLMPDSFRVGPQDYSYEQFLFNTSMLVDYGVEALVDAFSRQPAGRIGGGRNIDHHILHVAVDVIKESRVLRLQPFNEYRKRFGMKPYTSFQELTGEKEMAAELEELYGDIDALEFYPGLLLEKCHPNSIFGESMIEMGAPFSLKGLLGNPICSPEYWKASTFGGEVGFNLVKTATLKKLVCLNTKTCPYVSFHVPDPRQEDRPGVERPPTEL
# [2] = target: T2, COX-2 (Homo sapiens, UniProt P35354); assay: COX-2 ELISA assay kit (PGHS-2 converting arachidonic acid to prostaglandins)
# T2 sequence (P35354 18-604): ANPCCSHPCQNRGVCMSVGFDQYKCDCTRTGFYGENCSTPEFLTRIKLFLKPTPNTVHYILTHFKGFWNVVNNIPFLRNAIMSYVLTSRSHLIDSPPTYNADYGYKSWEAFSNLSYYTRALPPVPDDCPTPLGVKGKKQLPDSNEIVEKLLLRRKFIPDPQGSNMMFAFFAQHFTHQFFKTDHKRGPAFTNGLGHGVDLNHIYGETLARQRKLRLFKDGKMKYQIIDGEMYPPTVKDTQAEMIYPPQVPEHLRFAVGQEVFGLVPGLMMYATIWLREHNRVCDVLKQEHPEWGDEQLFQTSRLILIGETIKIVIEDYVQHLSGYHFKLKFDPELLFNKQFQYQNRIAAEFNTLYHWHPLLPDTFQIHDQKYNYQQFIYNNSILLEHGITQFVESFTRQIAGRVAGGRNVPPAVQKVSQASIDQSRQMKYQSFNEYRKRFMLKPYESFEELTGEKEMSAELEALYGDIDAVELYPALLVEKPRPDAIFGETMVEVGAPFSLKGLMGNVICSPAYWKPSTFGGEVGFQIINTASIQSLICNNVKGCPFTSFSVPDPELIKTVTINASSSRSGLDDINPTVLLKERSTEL
# Protocol: The anti-inflammatory assays for COX-2 inhibitory activity were conducted using prostaglandin endoperoxide H synthase-1 and -2 isozymes (PGHS-1, and -2) based on their ability to convert arachidonic acid to prostaglandins (PGs).
# Inhibition was measured by COX-1 and COX-2 ELISA assay kits (Cayman Chemical Co., Ann Arbor, Mich.).
smiles,measurement,setting,value
CC(=O)Oc1ccccc1C(=O)O [aspirin],inhibition of COX-1,[1],58%
same,inhibition of COX-2,[2],42%
